{
  "source": "paper PMC11233931",
  "about": "“Remodeling tumor‐associated macrophage for anti‐cancer effects by rational design of irreversible inhibition of mitogen‐activated protein kinase‐activated protein kinase 2” (MedComm, 2024)",
  "assay_in_all_cases": "Eurofins kinase selectivity profile against 380 other human recombinant kinases (Table S2)",
  "format_in_all_cases": "biochemical",
  "key": {"[1]": {"target": "T1, 380 human recombinant protein kinases (Homo sapiens, UniProt Q92772)", "T1 construct": "purchased Eurofins (Celle Lévescault)", "T1 sequence (Q92772 1-493)": "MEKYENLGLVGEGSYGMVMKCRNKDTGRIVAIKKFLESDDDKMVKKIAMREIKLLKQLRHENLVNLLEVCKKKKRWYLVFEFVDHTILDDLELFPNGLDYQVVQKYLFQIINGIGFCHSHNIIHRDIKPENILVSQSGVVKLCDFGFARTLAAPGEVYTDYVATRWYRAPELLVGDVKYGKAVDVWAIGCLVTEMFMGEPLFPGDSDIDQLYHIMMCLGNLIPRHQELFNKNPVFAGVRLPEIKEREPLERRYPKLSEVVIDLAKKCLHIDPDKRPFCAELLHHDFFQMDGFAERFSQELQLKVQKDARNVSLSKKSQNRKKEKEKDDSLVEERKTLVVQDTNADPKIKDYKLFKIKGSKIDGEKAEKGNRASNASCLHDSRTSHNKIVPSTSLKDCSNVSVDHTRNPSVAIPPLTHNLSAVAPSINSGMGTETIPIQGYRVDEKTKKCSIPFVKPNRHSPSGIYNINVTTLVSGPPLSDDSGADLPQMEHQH", "conditions": "CDKL2(h), read-out: Inhibition rate", "how_it_was_run": "(§1)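 Commercial selectivity screen of the test compound against a panel of 380 human recombinant protein kinases, run by an outside contractor at several compound concentrations to check whether its potency was specific for MK2.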"}, "[2]": {"target": "T2, 380 human recombinant protein kinases (Homo sapiens, UniProt P20794)", "T2 construct": "purchased Eurofins (Celle Lévescault)", "T2 sequence (P20794 1-623)": "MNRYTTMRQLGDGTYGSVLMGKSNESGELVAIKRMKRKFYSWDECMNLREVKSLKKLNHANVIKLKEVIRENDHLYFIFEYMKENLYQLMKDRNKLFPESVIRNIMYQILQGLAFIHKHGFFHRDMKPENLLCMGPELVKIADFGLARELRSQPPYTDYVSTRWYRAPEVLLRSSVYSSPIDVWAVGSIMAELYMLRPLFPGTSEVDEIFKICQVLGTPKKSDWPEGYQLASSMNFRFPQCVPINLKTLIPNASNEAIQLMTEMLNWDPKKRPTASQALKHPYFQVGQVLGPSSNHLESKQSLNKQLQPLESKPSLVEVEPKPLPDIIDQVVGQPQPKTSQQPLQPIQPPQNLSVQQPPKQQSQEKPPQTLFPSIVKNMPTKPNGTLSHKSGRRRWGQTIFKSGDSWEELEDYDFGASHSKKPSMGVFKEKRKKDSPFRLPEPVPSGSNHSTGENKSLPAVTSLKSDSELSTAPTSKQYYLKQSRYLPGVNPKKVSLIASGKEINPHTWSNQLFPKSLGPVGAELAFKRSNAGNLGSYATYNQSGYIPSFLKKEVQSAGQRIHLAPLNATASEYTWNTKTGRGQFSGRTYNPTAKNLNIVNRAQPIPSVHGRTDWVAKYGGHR", "conditions": "MAK(h), read-out: Inhibition rate", "how_it_was_run": "as §1"}, "[3]": {"target": "T3, 380 human recombinant protein kinases (Homo sapiens, UniProt P45984)", "T3 construct": "purchased Eurofins (Celle Lévescault)", "T3 sequence (P45984 whole entry)": "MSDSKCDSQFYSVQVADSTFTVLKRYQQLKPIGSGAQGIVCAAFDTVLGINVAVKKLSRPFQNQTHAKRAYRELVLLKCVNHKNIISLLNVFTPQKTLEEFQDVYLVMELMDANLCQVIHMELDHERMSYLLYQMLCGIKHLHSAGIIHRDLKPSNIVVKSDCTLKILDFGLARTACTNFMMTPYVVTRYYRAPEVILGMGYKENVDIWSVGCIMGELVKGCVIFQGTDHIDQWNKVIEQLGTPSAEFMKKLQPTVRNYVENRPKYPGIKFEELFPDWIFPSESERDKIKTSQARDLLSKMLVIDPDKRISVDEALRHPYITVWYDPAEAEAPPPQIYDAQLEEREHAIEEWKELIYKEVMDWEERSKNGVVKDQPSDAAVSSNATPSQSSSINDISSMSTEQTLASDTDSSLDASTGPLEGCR", "conditions": "JNK2α2(h), read-out: Inhibition rate", "how_it_was_run": "as §1"}, "[4]": {"target": "T4, 380 human recombinant protein kinases (Homo sapiens, UniProt P42338)", "T4 construct": "purchased Eurofins (Celle Lévescault)", "T4 sequence (P42338 whole entry)": "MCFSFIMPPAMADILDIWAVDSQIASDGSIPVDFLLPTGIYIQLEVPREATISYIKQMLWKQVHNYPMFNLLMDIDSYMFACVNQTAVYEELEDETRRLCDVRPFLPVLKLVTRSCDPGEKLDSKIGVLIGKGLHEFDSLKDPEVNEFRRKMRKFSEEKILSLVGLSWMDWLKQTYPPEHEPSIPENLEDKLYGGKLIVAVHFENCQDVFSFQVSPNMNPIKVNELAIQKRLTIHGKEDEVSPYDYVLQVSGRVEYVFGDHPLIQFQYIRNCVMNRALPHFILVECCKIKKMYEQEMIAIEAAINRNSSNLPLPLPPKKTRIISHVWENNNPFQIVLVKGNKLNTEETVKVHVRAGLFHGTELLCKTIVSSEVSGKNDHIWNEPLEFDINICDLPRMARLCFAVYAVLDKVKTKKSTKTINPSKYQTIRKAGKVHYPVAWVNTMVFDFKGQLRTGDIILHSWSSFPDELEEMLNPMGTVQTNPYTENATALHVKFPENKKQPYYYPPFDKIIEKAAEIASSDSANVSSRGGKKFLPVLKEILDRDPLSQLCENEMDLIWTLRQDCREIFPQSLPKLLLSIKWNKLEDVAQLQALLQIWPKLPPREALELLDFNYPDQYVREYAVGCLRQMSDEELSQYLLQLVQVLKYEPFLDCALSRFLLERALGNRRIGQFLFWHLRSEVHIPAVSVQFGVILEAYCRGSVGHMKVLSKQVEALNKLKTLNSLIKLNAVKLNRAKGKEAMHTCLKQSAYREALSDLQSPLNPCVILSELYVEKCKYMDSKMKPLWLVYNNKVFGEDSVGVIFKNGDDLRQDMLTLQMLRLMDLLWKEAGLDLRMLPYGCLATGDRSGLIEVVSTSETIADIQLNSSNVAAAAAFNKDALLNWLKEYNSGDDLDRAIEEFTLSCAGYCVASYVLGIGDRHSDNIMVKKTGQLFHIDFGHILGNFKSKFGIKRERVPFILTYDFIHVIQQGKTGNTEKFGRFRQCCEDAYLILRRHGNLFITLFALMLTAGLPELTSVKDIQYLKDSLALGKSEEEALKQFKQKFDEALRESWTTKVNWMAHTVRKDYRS", "conditions": "PI3 Kinase (p110β/p85α)(h), read-out: Inhibition rate (%)", "how_it_was_run": "as §1"}, "[5]": {"target": "T5, 380 human recombinant protein kinases (Homo sapiens, UniProt Q13627)", "T5 construct": "purchased Eurofins (Celle Lévescault)", "conditions": "DYRK1A(h), read-out: Inhibition rate", "how_it_was_run": "as §1"}, "[6]": {"target": "T6, 380 human recombinant protein kinases (Homo sapiens, UniProt Q5S007)", "T6 construct": "purchased Eurofins (Celle Lévescault)", "T6 sequence (Q5S007 whole entry)": "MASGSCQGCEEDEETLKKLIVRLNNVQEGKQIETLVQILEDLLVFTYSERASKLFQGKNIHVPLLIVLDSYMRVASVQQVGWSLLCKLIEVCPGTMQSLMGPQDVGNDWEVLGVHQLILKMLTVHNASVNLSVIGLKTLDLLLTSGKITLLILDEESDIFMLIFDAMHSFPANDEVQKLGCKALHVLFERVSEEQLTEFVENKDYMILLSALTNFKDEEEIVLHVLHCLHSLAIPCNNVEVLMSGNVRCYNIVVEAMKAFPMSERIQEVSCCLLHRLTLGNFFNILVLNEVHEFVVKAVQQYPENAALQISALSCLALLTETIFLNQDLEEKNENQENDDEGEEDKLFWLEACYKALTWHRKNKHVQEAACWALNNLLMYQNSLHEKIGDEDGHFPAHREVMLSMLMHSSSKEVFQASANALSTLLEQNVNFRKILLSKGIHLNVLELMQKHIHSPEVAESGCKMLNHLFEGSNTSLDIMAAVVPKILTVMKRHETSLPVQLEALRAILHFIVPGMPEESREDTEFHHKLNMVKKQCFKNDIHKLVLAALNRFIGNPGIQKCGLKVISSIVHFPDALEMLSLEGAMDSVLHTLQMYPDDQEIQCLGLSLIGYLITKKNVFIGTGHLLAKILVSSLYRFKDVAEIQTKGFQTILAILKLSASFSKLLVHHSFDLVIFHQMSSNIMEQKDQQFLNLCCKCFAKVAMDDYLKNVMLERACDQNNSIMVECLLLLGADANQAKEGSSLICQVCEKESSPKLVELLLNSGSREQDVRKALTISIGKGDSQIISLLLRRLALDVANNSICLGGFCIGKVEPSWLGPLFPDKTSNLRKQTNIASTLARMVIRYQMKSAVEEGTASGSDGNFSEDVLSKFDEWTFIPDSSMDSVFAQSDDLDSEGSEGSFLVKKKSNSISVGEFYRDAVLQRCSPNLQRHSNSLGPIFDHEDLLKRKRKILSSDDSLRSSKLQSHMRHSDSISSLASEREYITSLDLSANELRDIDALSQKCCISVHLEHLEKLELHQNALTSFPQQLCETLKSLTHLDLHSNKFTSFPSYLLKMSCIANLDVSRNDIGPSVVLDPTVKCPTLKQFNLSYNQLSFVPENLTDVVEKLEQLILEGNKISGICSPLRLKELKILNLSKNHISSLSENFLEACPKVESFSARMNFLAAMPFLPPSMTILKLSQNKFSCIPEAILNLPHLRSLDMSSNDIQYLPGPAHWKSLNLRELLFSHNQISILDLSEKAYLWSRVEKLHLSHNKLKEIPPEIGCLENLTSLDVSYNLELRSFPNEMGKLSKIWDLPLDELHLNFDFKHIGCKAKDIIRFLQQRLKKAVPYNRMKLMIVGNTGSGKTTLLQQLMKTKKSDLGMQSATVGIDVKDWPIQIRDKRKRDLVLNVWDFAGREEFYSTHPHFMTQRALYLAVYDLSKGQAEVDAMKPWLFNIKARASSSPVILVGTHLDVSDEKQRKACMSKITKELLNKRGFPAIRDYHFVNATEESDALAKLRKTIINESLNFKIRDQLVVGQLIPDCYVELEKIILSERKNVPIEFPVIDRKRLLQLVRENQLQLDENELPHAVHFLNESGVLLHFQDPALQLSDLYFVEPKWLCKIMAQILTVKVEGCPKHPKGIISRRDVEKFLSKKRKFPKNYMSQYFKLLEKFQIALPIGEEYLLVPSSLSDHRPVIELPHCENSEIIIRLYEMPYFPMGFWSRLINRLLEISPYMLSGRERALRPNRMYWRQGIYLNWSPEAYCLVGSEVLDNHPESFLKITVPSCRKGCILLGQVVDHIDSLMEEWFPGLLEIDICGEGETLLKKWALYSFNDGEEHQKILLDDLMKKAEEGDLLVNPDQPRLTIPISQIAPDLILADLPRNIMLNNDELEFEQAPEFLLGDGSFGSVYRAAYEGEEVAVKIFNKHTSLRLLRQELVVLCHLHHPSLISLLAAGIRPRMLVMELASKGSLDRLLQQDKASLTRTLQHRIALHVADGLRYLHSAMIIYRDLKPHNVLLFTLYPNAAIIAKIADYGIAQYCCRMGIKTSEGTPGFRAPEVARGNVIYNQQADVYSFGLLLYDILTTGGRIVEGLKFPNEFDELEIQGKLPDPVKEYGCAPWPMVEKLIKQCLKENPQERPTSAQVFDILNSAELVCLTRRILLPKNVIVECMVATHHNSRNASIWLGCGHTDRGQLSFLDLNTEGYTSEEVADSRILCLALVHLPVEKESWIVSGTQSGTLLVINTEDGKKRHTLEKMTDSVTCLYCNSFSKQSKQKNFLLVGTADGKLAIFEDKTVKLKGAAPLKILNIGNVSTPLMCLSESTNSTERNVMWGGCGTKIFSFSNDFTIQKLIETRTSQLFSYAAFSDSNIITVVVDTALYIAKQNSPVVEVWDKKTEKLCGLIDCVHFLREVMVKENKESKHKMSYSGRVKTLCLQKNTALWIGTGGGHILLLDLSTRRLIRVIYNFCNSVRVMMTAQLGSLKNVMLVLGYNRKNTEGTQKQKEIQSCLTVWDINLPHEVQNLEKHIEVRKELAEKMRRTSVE", "conditions": "LRRK2(h), read-out: Inhibition rate", "how_it_was_run": "as §1"}, "[7]": {"target": "T7, 380 human recombinant protein kinases (Homo sapiens, UniProt Q9BZL6)", "T7 construct": "purchased Eurofins (Celle Lévescault)", "T7 sequence (Q9BZL6 1-878)": "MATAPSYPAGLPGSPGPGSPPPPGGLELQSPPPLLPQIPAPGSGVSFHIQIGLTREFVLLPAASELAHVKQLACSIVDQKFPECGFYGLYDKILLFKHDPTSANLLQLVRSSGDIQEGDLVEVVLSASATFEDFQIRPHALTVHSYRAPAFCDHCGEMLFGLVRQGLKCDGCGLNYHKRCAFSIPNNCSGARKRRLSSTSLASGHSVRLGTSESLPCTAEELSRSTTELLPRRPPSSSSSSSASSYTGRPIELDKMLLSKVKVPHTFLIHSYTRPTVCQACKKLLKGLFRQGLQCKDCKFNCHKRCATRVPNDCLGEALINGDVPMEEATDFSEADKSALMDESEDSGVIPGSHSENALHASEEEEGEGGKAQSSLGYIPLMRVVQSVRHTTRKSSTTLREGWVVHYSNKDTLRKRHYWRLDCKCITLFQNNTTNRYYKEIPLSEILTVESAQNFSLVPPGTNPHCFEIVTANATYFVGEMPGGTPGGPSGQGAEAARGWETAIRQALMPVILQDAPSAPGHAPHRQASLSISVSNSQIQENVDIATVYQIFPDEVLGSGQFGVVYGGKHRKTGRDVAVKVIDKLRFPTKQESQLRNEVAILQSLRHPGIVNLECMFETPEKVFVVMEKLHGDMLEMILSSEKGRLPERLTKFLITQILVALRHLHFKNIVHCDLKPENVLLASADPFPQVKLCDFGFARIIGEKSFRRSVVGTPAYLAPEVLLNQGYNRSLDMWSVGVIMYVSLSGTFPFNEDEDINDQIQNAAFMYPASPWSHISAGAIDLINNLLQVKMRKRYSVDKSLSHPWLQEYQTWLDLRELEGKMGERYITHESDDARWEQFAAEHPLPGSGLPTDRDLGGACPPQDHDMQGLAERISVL", "conditions": "PKD2(h), read-out: Inhibition rate", "how_it_was_run": "as §1"}},
  "data": [
    {"smiles": "C=CC(=O)Nc1cc(-c2cc(-c3cc4c([nH]3)CCNC4=O)ccn2)ccc1OC(F)(F)F", "note": "[compound 11]", "values": [
      {"measurement": "inhibition at 0.01 µM", "setting": "[1]; 10 nM", "value": 31, "unit": "%"},
      {"measurement": "inhibition at 0.1 µM", "setting": "[1]; 100 nM", "value": 50, "unit": "%"},
      {"measurement": "inhibition at 1 µM", "setting": "[1]; 1000 nM", "value": 54, "unit": "%"},
      {"measurement": "inhibition at 0.01 µM", "setting": "[2]; 10 nM", "value": -9, "unit": "%"},
      {"measurement": "inhibition at 0.1 µM", "setting": "[2]; 100 nM", "value": -1, "unit": "%"},
      {"measurement": "inhibition at 1 µM", "setting": "[2]; 1000 nM", "value": -2, "unit": "%"},
      {"measurement": "inhibition at 0.01 µM", "setting": "[3]; 10 nM", "value": -6, "unit": "%"},
      {"measurement": "inhibition at 0.1 µM", "setting": "[3]; 100 nM", "value": 5, "unit": "%"},
      {"measurement": "inhibition at 1 µM", "setting": "[3]; 1000 nM", "value": 23, "unit": "%"},
      {"measurement": "inhibition at 0.01 µM", "setting": "[4]; 10 nM", "value": -1, "unit": "%"},
      {"measurement": "inhibition at 0.1 µM", "setting": "[4]; 100 nM", "value": -1, "unit": "%"},
      {"measurement": "inhibition at 1 µM", "setting": "[4]; 1000 nM", "value": -1, "unit": "%"},
      {"measurement": "inhibition at 0.01 µM", "setting": "[5]; 10 nM", "value": 20, "unit": "%"},
      {"measurement": "inhibition at 0.1 µM", "setting": "[5]; 100 nM", "value": 76, "unit": "%"},
      {"measurement": "inhibition at 1 µM", "setting": "[5]; 1000 nM", "value": 96, "unit": "%"},
      {"measurement": "inhibition at 0.01 µM", "setting": "[6]; 10 nM", "value": -4, "unit": "%"},
      {"measurement": "inhibition at 0.1 µM", "setting": "[6]; 100 nM", "value": 17, "unit": "%"},
      {"measurement": "inhibition at 1 µM", "setting": "[6]; 1000 nM", "value": 74, "unit": "%"},
      {"measurement": "inhibition at 0.01 µM", "setting": "[7]; 10 nM", "value": 0, "unit": "%"},
      {"measurement": "inhibition at 0.1 µM", "setting": "[7]; 100 nM", "value": 8, "unit": "%"},
      {"measurement": "inhibition at 1 µM", "setting": "[7]; 1000 nM", "value": 47, "unit": "%"}
    ]}
  ]
}
